Series [1] has as its target T1, DPP-IV activity in human plasma (Homo sapiens, UniProt P27487).
T1 construct: from tissue; host or cells: human plasma
In words: Human plasma DPP-IV assay. The format is biochemical. Particulars: substrate H-Gly-Pro-AMC. How it is done: (§1) Briefly, 5 μl of plasma are added to 96-well flat-bottom micortiter plates (Falcon), followed by the addition of 5 μl of 80 mM MgCl2 in incubation buffer (25 mMHEPES, 140 mM NaCl, 1% RIA-grade BSA, pH 7.8). After a 60 min. incubation at room temperature, the reaction is initiated by the addition of 10 μl of incubation buffer containing 0.1 mM substrate (H-Glycine-Proline-AMC; AMC is 7-amino 4-methylcoumarin). The plates are covered with aluminum foil (or kept in the dark) and incubated at room temperature for 20 min. […] A fluorescence-concentration curve of free AMC is generated using 0-50 μM solutions of AMC in assay buffer. The curve generated is linear and is used for interpolation of substrate consumption (catalytic activity in nmoles substrate cleaved/min). As with the previous assay, the potency of the test compounds as DPP-IV inhibitors, expressed as IC50, is calculated from 8-point, dose-response curves using a 4 parameter logistic function.

Series [2] deals with T2, DPP-IV activity from human colonic carcinoma cell (Caco-2) extracts (Homo sapiens, UniProt P27487).
T2 construct: Cell extract is prepared from cells solubilized in 10 mM Tris HCl; host or cells: Caco-2, differentiated to induce DPP-IV expression
As to the kind of experiment: Caco-2 DPP-IV Assay. Conditions: Caco-2 cell extract, substrate H-Ala-Pro-pNA, 8-point dose-response. In kind it is biochemical. On the procedure: The human colonic carcinoma cell line Caco-2 was obtained from the American Type Culture Collection (ATCC HTB 37). Differentiation of the cells to induce DPP-IV expression was accomplished as described by Reisher, et al. in an article entitled “Increased expression of intestinal cell line Caco-2” in Proc. Natl. Acad. Sci., Vol. 90, pgs. […] Cell extract is prepared from cells solubilized in 10 mM Tris HCl, 0.15 M NaCl, 0.04 t.i.u.aprotinin, 0.5% nonidet-P40, pH 8.0, which is centrifuged at 35,000 g for 30 min. at 4° C. to remove cell debris. The assay is conducted by adding 20 μg solubilized Caco-2 protein, diluted to a final volume of 125 μl in assay buffer (25 mM Tris HCl pH 7.4, 140 mM NaCl, 10 mM KCl, 1% bovine serum albumin) to microtiter plate wells. After a 60 min. incubation at room temperature, the reaction is initiated by adding 25 μl of 1 mM substrate (H-Alanine-Proline-pNA; pNA is p-nitroaniline). […] A standard curve of free p-nitroaniline is generated using 0-500 μM solutions of free pNA in assay buffer. The curve generated is linear and is used for interpolation of substrate consumption (catalytic activity in nmoles substrate cleaved/min).
The potency of the test compounds as DPP-IV inhibitors, expressed as IC50, is calculated from 8-point, dose-response curves using a 4-parameter logistic function.

For series [3], the target named is T3, DPP-IV activity in rat plasma (Rattus norvegicus, UniProt P14740).
T3 construct: from tissue; host or cells: rat plasma
As to the kind of experiment: Rat plasma DPP-IV assay. The format is biochemical. Particulars: substrate H-Gly-Pro-AMC. On the procedure:
as §1

T1 sequence (P27487 39-766 limits assumed): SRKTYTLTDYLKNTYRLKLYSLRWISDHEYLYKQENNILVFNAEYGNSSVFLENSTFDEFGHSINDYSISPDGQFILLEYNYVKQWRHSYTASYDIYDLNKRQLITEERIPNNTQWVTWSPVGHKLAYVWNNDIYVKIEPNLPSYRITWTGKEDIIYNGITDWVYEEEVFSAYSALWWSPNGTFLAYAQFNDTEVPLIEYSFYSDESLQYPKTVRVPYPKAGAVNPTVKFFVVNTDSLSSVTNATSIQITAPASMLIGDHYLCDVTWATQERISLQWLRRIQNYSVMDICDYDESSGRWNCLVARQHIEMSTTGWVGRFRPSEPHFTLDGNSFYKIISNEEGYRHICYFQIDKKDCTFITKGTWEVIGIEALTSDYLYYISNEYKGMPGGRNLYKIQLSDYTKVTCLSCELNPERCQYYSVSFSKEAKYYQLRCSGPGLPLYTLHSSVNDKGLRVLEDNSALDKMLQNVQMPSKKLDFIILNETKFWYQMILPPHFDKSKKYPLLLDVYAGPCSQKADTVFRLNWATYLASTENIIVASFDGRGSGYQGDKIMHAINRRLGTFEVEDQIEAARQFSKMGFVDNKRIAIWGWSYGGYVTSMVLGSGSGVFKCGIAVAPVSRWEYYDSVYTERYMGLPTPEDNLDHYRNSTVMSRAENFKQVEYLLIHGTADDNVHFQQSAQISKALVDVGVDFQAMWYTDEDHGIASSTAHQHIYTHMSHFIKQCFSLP
T2 sequence (P27487 whole entry): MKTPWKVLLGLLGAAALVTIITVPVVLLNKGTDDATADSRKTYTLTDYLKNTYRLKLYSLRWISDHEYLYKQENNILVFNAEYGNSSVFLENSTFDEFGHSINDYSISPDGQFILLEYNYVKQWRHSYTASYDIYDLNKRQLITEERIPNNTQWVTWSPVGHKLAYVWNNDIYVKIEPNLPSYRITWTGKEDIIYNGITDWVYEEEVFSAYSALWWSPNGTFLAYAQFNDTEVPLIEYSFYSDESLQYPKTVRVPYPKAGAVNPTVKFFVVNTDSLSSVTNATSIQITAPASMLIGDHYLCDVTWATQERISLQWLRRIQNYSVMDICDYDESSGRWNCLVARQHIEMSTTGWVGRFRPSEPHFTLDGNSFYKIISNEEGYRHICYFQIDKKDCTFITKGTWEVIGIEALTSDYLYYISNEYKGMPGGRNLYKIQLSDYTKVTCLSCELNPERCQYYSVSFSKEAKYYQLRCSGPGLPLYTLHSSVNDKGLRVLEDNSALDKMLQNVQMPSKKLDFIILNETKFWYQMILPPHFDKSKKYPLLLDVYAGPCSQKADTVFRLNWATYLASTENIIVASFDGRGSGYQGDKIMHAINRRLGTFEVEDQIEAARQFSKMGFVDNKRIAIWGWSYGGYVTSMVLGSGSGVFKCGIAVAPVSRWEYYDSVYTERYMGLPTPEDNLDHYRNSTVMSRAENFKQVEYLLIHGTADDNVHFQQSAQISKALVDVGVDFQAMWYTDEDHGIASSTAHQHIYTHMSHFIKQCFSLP
T3 sequence (P14740 38-767 limits assumed): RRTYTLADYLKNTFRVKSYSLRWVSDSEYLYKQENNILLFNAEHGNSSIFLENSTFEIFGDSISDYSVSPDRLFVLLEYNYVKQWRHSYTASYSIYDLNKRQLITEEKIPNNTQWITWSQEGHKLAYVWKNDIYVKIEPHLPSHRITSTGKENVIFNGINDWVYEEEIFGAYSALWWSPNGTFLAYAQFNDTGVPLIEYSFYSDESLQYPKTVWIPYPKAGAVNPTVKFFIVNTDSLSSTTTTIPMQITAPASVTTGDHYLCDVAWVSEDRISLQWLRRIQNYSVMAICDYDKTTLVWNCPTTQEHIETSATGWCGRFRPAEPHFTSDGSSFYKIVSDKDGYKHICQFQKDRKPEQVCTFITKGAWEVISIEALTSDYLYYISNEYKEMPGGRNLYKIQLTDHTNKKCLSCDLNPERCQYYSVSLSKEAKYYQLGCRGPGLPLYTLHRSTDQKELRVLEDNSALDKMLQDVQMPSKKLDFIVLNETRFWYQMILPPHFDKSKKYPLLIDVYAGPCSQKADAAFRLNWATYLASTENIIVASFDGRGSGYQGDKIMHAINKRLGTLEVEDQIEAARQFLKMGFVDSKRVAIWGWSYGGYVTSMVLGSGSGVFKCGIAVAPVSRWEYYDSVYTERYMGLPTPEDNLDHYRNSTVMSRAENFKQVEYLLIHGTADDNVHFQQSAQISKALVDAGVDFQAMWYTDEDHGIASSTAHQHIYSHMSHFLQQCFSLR

One may read the IC50 as the point on the concentration scale where inhibition reaches its midpoint. Higher therefore signals weaker potency. For `N#C[C@@H]1CCCN1C(=O)CN[C@H]1CC[C@H](NS(=O)(=O)c2cccs2)CC1` [Ex. 2AA], the IC50 stood at 33 nM in series [1], 56 nM in series [2] and 16 nM in series [3].

Turning to `CC(C)(CNc1ccc(C(F)(F)F)cn1)NCC(=O)N1CCC[C@H]1C#N` [Ex. 2B, 1-[[[2-[(5-trifluoromethyl-2-pyridinyl)amino]-1,1-dimethylethyl]amino]acetyl]-2-cyano-(S)-pyrrolidine], the IC50 in series [1] was 59 nM; in series [2] it was 5 nM; in series [3], 11 nM.

For `CC(C)(Cc1ccc(F)cc1)NCC(=O)N1CCC[C@H]1C#N` [Ex. 2BB], the IC50 in series [1] was determined as 38 nM; in series [2], 19 nM; in series [3], 13 nM.

In general, melting point refers to the temperature, or range, at which the solid turns liquid. `Cc1ccc(C(=O)NCC(C)(C)NCC(=O)N2CCC[C@H]2C#N)cc1` [Ex. 2C, 1-[[[2-[(4-methylbenzoyl)amino]-1,1-dimethylethyl]amino]acetyl]-2-cyano-(S)pyrrolidine] had a melting point of 40 to 42 °C. In addition, the midpoint of inhibition in series [1], the IC50, lay at 50 nM. For the same molecule, in series [2], the IC50 worked out at 99 nM. In series [3], this molecule registered an IC50 of 25 nM.

As for `CC(C)(CNc1ncccc1Cl)NCC(=O)N1CCC[C@H]1C#N` [Ex. 2D, 1-[[[2-[(3-chloro-2-pyridinyl)amino]-1,1-dimethylethyl]amino]acetyl]-2-cyano-(S)-pyrrolidine], the results for the IC50 in series [1], in series [2] and in series [3] were 93 nM, 44 nM and 71 nM, respectively.

For `CCCCCC12CCC(NCC(=O)N3CCC[C@H]3C#N)(CC1)CC2` [Ex. 2DD, 1-[[(4-pentylbicyclo[2.2.2]oct-1-yl)amino]acetyl]-2-cyano-(S)-pyrrolidine], the half-maximal inhibitory concentration (IC50) in series [1] is 66 nM; in series [2], 156 nM; in series [3], 38 nM.

Regarding `CC(C)(CNc1ncc(Cl)cc1Cl)NCC(=O)N1CCC[C@H]1C#N` [Ex. 2F, 1-[[[2-[(3,5-dichloro-2-pyridinyl)amino]-1,1-dimethylethyl]amino]acetyl]-2-cyano-(S)-pyrrolidine], the figures for the IC50 in series [1], in series [2] and in series [3] were 46 nM, 45 nM and 37 nM, respectively.

On to `CC(C)(CNc1ncccc1C(F)(F)F)NCC(=O)N1CCC[C@H]1C#N` [Ex. 2G, 1-[[[2-[(3-trifluoromethyl-2-pyridinyl)amino]-1,1-dimethylethyl]amino]acetyl]-2-cyano-(S)-pyrrolidine], for which the IC50 in series [3] was 111 nM.

Take `N#C[C@@H]1CCCN1C(=O)CN[C@H]1CC[C@H](Oc2cccc(C(F)(F)F)c2)CC1` [Ex. 2GG, 1-[[[4-[(3-trifluoromethyl)phenoxy]cyclohexyl]amino]acetyl]-2-cyano-(S)-pyrrolidine]: the IC50 was 20 nM in series [1], 22 nM in series [2] and 10 nM in series [3].

Turning to `N#C[C@@H]1CCCN1C(=O)CN[C@H]1CC[C@H](Oc2cccc(Cl)c2)CC1` [Ex. 2HH], the IC50 in series [1] was 18 nM; in series [2] it was 18 nM; in series [3], 10 nM.

In the case of `CC(C)(CNC(=O)c1ccc(Cl)cc1)NCC(=O)N1CCC[C@H]1C#N` [Ex. 2I, 1-[[[2-[(4-chlorobenzoyl)amino]-1,1-dimethylethyl]amino]acetyl]-2-cyano-(S)-pyrrolidine], the IC50 in series [1] is 73 nM; in series [2] it was 80 nM; in series [3], 31 nM.

Take `N#C[C@@H]1CCCN1C(=O)CNC1CCN(C(=O)Nc2ccc(Cl)cc2)CC1` [Ex. 2II, 1-[[[1-[[(4-chlorophenyl)amino]carbonyl]-4-piperidinyl]amino]acetyl]-2-cyano-(S)-pyrrolidine]: the IC50 in series [1] came to 37 nM; in series [2], 44 nM; in series [3], 12 nM.

With `CC(C)N(C(=O)NCC(C)(C)NCC(=O)N1CCC[C@H]1C#N)C(C)C` [Ex. 2J, 1-[[[2-[[(diisopropylamino)carbonyl]amino]-1,1-dimethylethyl]amino]acetyl]-2-cyano-(S)-pyrrolidine], the IC50 in series [1] was 421 nM; in series [2], 41 nM; in series [3] it was 49 nM.

`CC(C)N(C(=O)N1CCC(NCC(=O)N2CCC[C@H]2C#N)CC1)C(C)C` [Ex. 2JJ, 1-[[[1-[(diisopropylamino)carbonyl]-4-piperidinyl]amino]acetyl]-2-cyano-(S)-pyrrolidine]: the IC50 in series [1] was 45 nM; in series [2], 94 nM; in series [3], 5 nM.

For `CC(C)(CNC(=O)Nc1ccc(Cl)cc1)NCC(=O)N1CCC[C@H]1C#N` [Ex. 2K, 1-[[[2-[[[(4-chlorophenyl)amino]carbonyl]amino]-1,1-dimethylethyl]amino]acetyl]-2-cyano-(S)-pyrrolidine], the IC50 in series [1] was 305 nM; in series [2], 56 nM; in series [3], 38 nM.

As for `N#C[C@@H]1CCCN1C(=O)CNC1CCN(c2nc(-c3ccc(Cl)cc3)cs2)CC1` [Ex. 2LL], the figures for the half-maximal inhibitory concentration (IC50) in series [1], in series [2] and in series [3] were 649 nM, 61 nM and 123 nM, respectively.

With `COc1ccc(-c2csc(N3CCC(NCC(=O)N4CCC[C@H]4C#N)CC3)n2)cc1` [Ex. 2MM], the IC50 stood at 71 nM in series [1], 22 nM in series [2] and 58 nM in series [3].

Molecule `N#C[C@@H]1CCCN1C(=O)CNC1CCC(NC(=O)c2ccccc2)CC1` (stereo partly drawn) [Ex. 2N, 1-[[[4-(benzoylamino)cyclohexyl]amino]acetyl]-2-cyano-(S)-pyrrolidine] gave a melting point of 78 to 80 °C.

Turning to `N#C[C@@H]1CCCN1C(=O)CN[C@H]1CC[C@H](Nc2nccc(C(F)(F)F)n2)CC1` [Ex. 2O, 1-[[[4-[[(4-trifluoromethyl)-2-pyrimidinyl]amino]cyclohexyl]amino]acetyl]-2-cyano-(S)-pyrrolidine], the IC50 in series [1] was found to be 8 nM; in series [2] it was 8 nM; in series [3], 9 nM.

`N#C[C@@H]1CCCN1C(=O)CN[C@H]1CC[C@H](Nc2ncccc2C(F)(F)F)CC1` [Ex. 2P, 1-[[4-[[(3-trifluoromethyl-2-pyridinyl)amino]cyclohexyl]amino]acetyl]-2-cyano-(S)-pyrrolidine]: the IC50 in series [1] stood at 16 nM; in series [2], 15 nM; in series [3], 11 nM.

With `N#C[C@@H]1CCCN1C(=O)CN[C@H]1CC[C@H](NS(=O)(=O)c2ccc(Cl)cc2)CC1` [Ex. 2Q, 1-[[[[4-[(4-chlorophenyl)sulfonyl]amino]cyclohexyl]amino]acetyl]-2-cyano-(S)-pyrrolidine], the IC50 in series [1] came to 38 nM; in series [2], 30 nM; in series [3] it was 38 nM.

As to `N#C[C@@H]1CCCN1C(=O)CN[C@H]1CC[C@H](NC(=O)c2ccc(Cl)cc2)CC1` [Ex. 2T, 1-[[[4-[(4-chlorobenzoyl)amino]cyclohexyl]amino]acetyl]-2-cyano-, (S)-pyrrolidine], the figures for the IC50 in series [1], in series [2] and in series [3] were 26 nM, 31 nM and 37 nM, respectively.

Consider `N#C[C@@H]1CCCN1C(=O)CN[C@H]1CC[C@H](NS(=O)(=O)c2ccc(C(F)(F)F)cc2)CC1` [Ex. 2Z, 1-[[[4-[[[(4-trifluoromethyl)phenyl]sulfonyl]amino]cyclohexyl]amino]acetyl]-2-cyano-(S)-pyrrolidine], for which the IC50 was 122 nM in series [1], 66 nM in series [2] and 88 nM in series [3].

For the molecule `N#C[C@@H]1CCCN1C(=O)CNC1CCN(C(=O)c2ccc(Cl)cc2)CC1` [Ex. 4B], the values for the half-inhibitory concentration (IC50) in series [1], in series [2] and in series [3] were 77 nM, 35 nM and 31 nM, respectively.

For `N#C[C@@H]1CCCN1C(=O)CNC1CCN(S(=O)(=O)c2ccc(C(F)(F)F)cc2)CC1` [Ex. 4C], the IC50 in series [1] turned out to be 68 nM; in series [2], 83 nM; in series [3], 48 nM.

`N#C[C@@H]1CCCN1C(=O)CNC1CCN(S(=O)(=O)c2ccccc2)CC1` [Ex. 4D, 1-[[(1-phenylsulfonyl-4-piperidinyl)amino]acetyl]-2-cyano-(S)-pyrrolidine]: the IC50 amounted to 104 nM in series [1], 114 nM in series [2] and 59 nM in series [3].

As to `N#C[C@@H]1CCCN1C(=O)CN[C@H]1CC[C@H](NC(=O)c2ccc(F)cc2)CC1` [Ex. 5], the IC50 stood at 5 nM in series [1], 36 nM in series [2] and 4 nM in series [3].

These data come from patent US6432969B1, “N-(substituted glycyl)-2 cyanopyrrolidines, pharmaceutical compositions containing them and their use in inhibiting dipeptidyl peptidase-IV” (Novartis AG, priority 2000, dated 2002).
